Publication PMC11166204, “Mapping the global interactome of the ARF family reveals spatial organization in cellular signaling pathways” (Journal of Cell Science, 2024)
Where two headings read alike, the source gives them in different places.

Tests used:
Type in all cases: binding
ARL11 = molecular target: T1, ARL11 (Homo sapiens, UniProt Q969Q4); assay: ITC; 1H-15N HSQC NMR
T1 construct: amino acids 1–196 (GST tag cleaved with thrombin)

ARL10 [1] = molecular target: T2, ARL10 (Homo sapiens, UniProt Q8N8L6); assay: co-purified nucleotide by ion-pair reversed-phase HPLC
T2 construct: GFP-tagged, purified from HEK293T cells
T2 sequence (Q8N8L6 1-244): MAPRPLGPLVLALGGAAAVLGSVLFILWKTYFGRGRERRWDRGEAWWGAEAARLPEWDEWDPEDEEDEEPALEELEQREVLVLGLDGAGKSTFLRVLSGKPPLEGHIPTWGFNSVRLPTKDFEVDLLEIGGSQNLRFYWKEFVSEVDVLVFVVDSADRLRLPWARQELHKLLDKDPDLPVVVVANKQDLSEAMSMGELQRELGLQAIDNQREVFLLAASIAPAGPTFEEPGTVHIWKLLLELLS

KRAS [2] = molecular target: T3, KRAS (Homo sapiens, UniProt P01116, Q61L); assay: as above
T3 construct: GFP-tagged, purified from HEK293T cells

ARL10 [3] = molecular target: T2, ARL10; assay: as above; remark: listed apart in the source
KRAS [4] = molecular target: T4, KRAS (Homo sapiens, UniProt P01116); assay: as above
T4 construct: GFP-tagged, purified from HEK293T cells

ARF1 = molecular target: T5, ARF1 (Homo sapiens, UniProt P84077); assay: as above
T5 construct: GFP-tagged, purified from HEK293T cells
T5 sequence (P84077 2-181): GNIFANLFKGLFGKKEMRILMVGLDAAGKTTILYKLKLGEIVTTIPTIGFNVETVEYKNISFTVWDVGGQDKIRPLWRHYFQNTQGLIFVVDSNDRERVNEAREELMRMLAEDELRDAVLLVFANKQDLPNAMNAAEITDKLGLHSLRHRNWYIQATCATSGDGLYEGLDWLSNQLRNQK

T1 sequence (Q969Q4 whole entry, the tested form may be a part): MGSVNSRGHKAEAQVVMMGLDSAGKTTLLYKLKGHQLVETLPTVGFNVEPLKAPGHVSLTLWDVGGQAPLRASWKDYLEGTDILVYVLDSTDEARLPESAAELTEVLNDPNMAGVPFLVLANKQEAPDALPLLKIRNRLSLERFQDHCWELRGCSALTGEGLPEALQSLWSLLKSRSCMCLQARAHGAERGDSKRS

Nc1nc2c(ncn2[C@@H]2O[C@H](COP(=O)(O)OP(=O)(O)OP(O)(O)=S)[C@@H](O)[C@H]2O)c(=O)[nH]1 [GTPγS]
Kd (ARL11): 1.53 nM

Nc1nc2c(ncn2[C@@H]2O[C@H](COP(=O)(O)OP(=O)(O)OP(=O)(O)O)[C@@H](O)[C@H]2O)c(=O)[nH]1 [GTP]
% GTP (ARL10 [1]): 29 % GTP | % GTP (KRAS [2]): 59 % GTP

Nc1nc2c(ncn2[C@@H]2O[C@H](COP(=O)(O)OP(=O)(O)O)[C@@H](O)[C@H]2O)c(=O)[nH]1 [GDP]
co-purified nucleotide by ion-pair reversed-phase HPLC (ARL10 [3]): WT ARL10 co-precipitated with both GDP and GTP | co-purified nucleotide by ion-pair reversed-phase HPLC (KRAS [4]): WT KRAS remained GDP loaded, as did WT ARF1 | Kd (ARL11; read-out: Kd): 1730 nM | co-purified nucleotide by ion-pair reversed-phase HPLC (ARF1): WT KRAS remained GDP loaded, as did WT ARF1
